{
  "source": "paper PMC4191920",
  "about": "(Journal of molecular biology, 2014)",
  "origin": "cited, not measured here",
  "test_system": "fibril formation",
  "details": "at pH 7.4",
  "data": [
    {"substance": "[Nα-methyl-β-Ala26]Aβ42", "values": [
      {"measurement": "effect on fibril formation", "result": "inhibit fibril formation"}
    ]}
  ]
}
